Like-named read-outs stand apart in the source and are kept apart here.
B1: GPR: Green-absorbing proteorhodopsin, light-driven proton pump found in marine bacteria (protein)
chain: TMGKLLLILGSVIALPTFAAGGGDLDASDYTGVSFWLVTAALLASTVFFFVERDRVSAKWKTSLTVSGLVTGIAFWHYMYMRGVWIETGDSPTVFRYIDWLLTVPLLICEFYLILAAATNVAAGLFKKLLVGSLVMLVFGYMGEAGIMNAWPAFIIGCLAWVYMIYELYAGEGKSACNTASPSVQSAYNTMMAIIVFGWAIYPVGYFTGYLMGDGGSALNLNLIYNLADFVNKILFGLIIWNVAVKESSNA
modifications: /note=“Description of Unknown Green-absorbing proteorhodopsin polypeptide from an uncultured marine bacterium”

How the values were obtained:
membrane potential = settings: literature values, cited from earlier work; for Approx ΔF/F per 100 mV: ΔR/R where comment says ratiometric
[1] = Schiff base pKa and fluorescence of GPR / PROPS; format: physicochemical

Molecule | Approx response time (membrane potential) [ms] | Approx ΔF/F per 100 mV (membrane potential) [%] | pKa of the Schiff Base [1] | pKa of the Schiff Base ([1]; listed as green proteorhodopsin)
CCCCN(CCCC)c1ccc(/C=C/C=C/C=C/c2cc[n+](CCCCS(=O)(=O)[O-])cc2)cc1 [RH237] | <1 | 11 |  | 
CCCCCN(CCCCC)c1ccc(/C=C/C=C/c2cc[n+](CCCCS(=O)(=O)[O-])cc2)cc1 [RH421] | <1 | 21 |  | 
CCCCN(CCCC)c1ccc2cc(/C=C/c3cc[n+](CCCS(=O)(=O)[O-])cc3)ccc2c1 [di-4-ANEPPS] | <1 | 8 |  | 
CCCCCCCCN(CCCCCCCC)c1ccc2cc(/C=C/c3cc[n+](CCCS(=O)(=O)[O-])cc3)ccc2c1 [di-8-ANEPPS] | <1 | 10 |  | 
Flash | 2.8 to 85 | 5.1 |  | 
B1 |  |  | ~12 | > 12

Reference: patent US20150004637A1, “SYSTEMS AND METHODS FOR IMAGING AT HIGH SPATIAL AND/OR TEMPORAL PRECISION” (President and Fellows of Harvard College, priority 2011, published 2015)
